The subject of one data set is PC-3 cells. Put plainly: MTT cell growth assay, PC-3 cells. Format: cell-based, human. Conditions: for enhancement of docetaxel sensitivity: PC-3 cells, 50 nM docetaxel 24 h, MTT. As to the method:
(§1) In brief, cells were seeded in each well of 12-well microtiter plates (30 000 to 50 000 cells per well) and allowed to attach overnight. To study the effect of TCTP downregulation on apoptosis induced by docetaxel, PC-3 cells were transiently transfected the day after seeding with 5 nM of TCTP siRNA for 48 h or 100 nM of TCTP ASO for 72 h. Cells were then treated with 50 nM of docetaxel and MTT assays were performed after 24 h. To assess the effect of TCTP downregulation on Hsp27 cytoprotection, LNCaP-Mock and -Hsp27 cells were transiently transfected the day after seeding with 5 nM of TCTP siRNA for 48 h. The down- or upregulation of TCTP effect on LNCaP and C4-2 cell viability was realized after transient transfections with 100 nM of TCTP ASO or 0.02 μg/μl of pDEST-TCTP for 72 h and 48 h respectively. Cells were then treated with 1 nM of docetaxel in serum-free media (mimics androgen withdrawal in vitro) and crystal violet assays were performed the day after. Each assay was performed in triplicate.
To assess the effect of TCTP down-regulation on CR cell growth, PC-3 cells were treated for 1 day with 5 nM TCTP siRNA or for 2 days with 100 nM TCTP ASO. At the end of the treatment, PC-3 cells were incubated with 50 nM of docetaxel. Growth rates of PC-3 cells were examined using the 3-(4,5-dimethylthiazol-2-yl)-2,5-diphenyltetrazolium bromide assay. […] The effect of the inhibition of TCTP on cell survival was analyzed in PC-3 after combined ASO and docetaxel-chemotherapy treatment. After 24 h of treatment with 50 nM of docetaxel, cell viability was determined using a MTT assay. The experiment was repeated in triplicate. *** differs from PC-3 transfected with control-siRNA (P50.001) using Statview software. […] The same effect has been observed with TCTP siRNA (SEQ ID NO: 3) and 5′-[…]-3′ (SEQ ID NO: 14) and 5′-[…]-3′ (SEQ ID NO: 15) ASOs.
PC3 cells were transfected with a TCTP siRNA of SEQ ID NO: 3. Cell proliferation and apoptosis were studied using respectively MTT (3-(4,5-dimethylthiazol-2-yl)-2,5-diphenyl tetrazolium bromure) assay and flow cytometry.
PC3 cells were transfected with a TCTP ASO of SEQ ID NO: 2. Cell proliferation and apoptosis were studied using respectively MTT assay and flow cytometry.
(Formazan colour is commonly taken as a measure of viable cells.)

The subject of the next data set is LNCaP cells. Kind of data set: Crystal violet cell growth assay, LNCaP cells. The data set is classed as cell-based, human. The method, then:
as §1
Finally, in order to assess if TCTP ASO has the same effect on prostatic cancer cell lines expressing the androgen receptor (AR), crystal violet dye was used to examin LNCaP and C4-2 cell growth. LNCaP and C4-2 were treated with 100 nM TCTP or control ASO (FIGS. 15 A and B) for 2 days. Then, LNCaP and C4-2 cells were incubated with 1 nM of docetaxel in serum-free media.

The next data set deals with PC-3 tumors. Put plainly: PC-3 tumor growth in vivo in athymic nude mice. As to the method: (§2) Approximately 3.10^6 PC-3 cells and 10.10^6 LNCaP cells were inoculated subcutaneously with 0.1 mL of Dulbecco's Modified Eagle's Medium (Invitrogen) supplemented with 10% FCS for PC-3 or with 0.1 mL of Matrigel (BD Biosciences Discovery Labware) for LNCaP in the flank region of 4-week-old male athymic nude mice (Charles River, L'Arbresle, France) via a 23-gauge needle. When PC-3 tumors reached 50 mm^3, usually 3 to 4 weeks after injection, mice were randomly selected for treatment with TCTP ASO alone, scrambled ASO alone, TCTP ASO plus docetaxel or scrambled ASO plus docetaxel. Mice bearing LNCaP tumors between 200 and 300 mm^3 in volume were castrated via scrotal approach and randomly assigned to a treatment arm. Mice were treated beginning 1 week after castration with TCTP ASO or control ASO alone and serum PSA measurements were done weekly. For both experiments, each experimental group consisted in 10 mice and the tumor volume measurements were performed once weekly and calculated by the formula length×width×depth×0.5236 (Gleave et al., 1999, Clin Cancer Res 5:2891-8). After randomization, 10 mg/kg TCTP or scrambled ASO was injected intraperitoneally (i.p) once daily for 60 days for ASO monotherapy groups and 90 days for the ASO plus docetaxel groups. A total of 35 mg/kg docetaxel was administrated i.p. three times per week from days 7 to 14. Tumor volume measurements were performed once weekly and calculated by the formula length×width×depth×0.5236 (20). Data points were expressed as average tumor volume levels +/−standard error (SE). All animal procedures were performed in accordance with protocols approved by French laws and the European directives and with appropriate institutional certification.
We next evaluated the effects of TCTP ASO treatment on the growth of PC-3 tumors in vivo (FIG. 8). Male nude mice bearing PC-3 tumors (50 mm^3) were randomly selected for TCTP ASO versus scrambled ASO and 10 mg/kg ASO were administrated once daily by i.p. injection for […]. From days 7 to 14, 30 mg/kg of docetaxel was administrated i.p. 3 days in the week. Mean tumor volume was similar in all groups before therapy.
TCTP inhibition was evaluated in nude mice xenografted with the PC3 CRPC cell line. The animals were treated in an everyday basis and for a period of two months by peritoneal injection of ASO or control TCTP once their tumor volume was 200-300 mm^3. In order to evaluate the additive anticancer activity of ASO TCTP, mice were treated with docetaxel (33 mg/kg) by peritoneal injection three times per week for one week prior to ASO or control TCTP injections. For all experiments, the average tumor volume was measured once a week.

In a further data set the test system is LNCaP tumors. Put plainly: LNCaP tumor growth in vivo after castration in athymic nude mice. The method, then: as §2
Twenty male mice bearing LNCaP tumors were castrated 6 to 8 weeks after tumor implantation and were randomly selected for treatment with TCTP ASO of SEQ ID NO: 2 versus control ASO. Castration was done when tumors reached a mean of 200 mm3. Mean tumor volume and PSA were similar in both groups at the beginning of the treatment. Beginning 1 week after castration, 10 mg/kg of ASO was administered once daily by i.p. injection for 9 weeks. […] At sacrifice, tumor volume was 4-fold higher in control (1650, 15±281, 76 mm^3) compared with the TCTP ASO-treated group (397, 79±132, 61 mm^3; *, P≤0.05).

d = 2'-deoxy (DNA); r = 2'-OH (RNA) Bounds are passed on as bounds.

As to “5′-AACCCGUCCGCGAUCUCCCdGdG-3′ (AACCCGUCCGCGAUCUCCCGG; siRNA; sugars from the 5' end r19 d2, backbone not given here) [TCTP siRNA, from Qiagen]”, the “reduction in PC-3 cell growth” value with PC-3 cells (5 nM siRNA alone, 4 days after treatment, compared to scrambled control) was 55%. Moreover, the “enhancement of docetaxel sensitivity” value in the data set with PC-3 cells was “same effect”. Moreover, the “decrease of proliferation of PC3 cells” value with PC-3 cells (TCTP siRNA, MTT assay (summary, FIG. 12)) is reported as 48.1%.

On to “5′-ACCAATGAGCGAGTCATCAA-3′ (phosphorothioate backbone, further chemistry not given here) [ASO10]”, for which the LNCaP cell growth entry in the data set on LNCaP cells (100 nM ASO for 2 days) is listed as “considerably decrease”. The “sensitivity to docetaxel and androgen withdrawal” value with LNCaP cells (LNCaP, 100 nM ASO 2 days then 1 nM docetaxel in serum-free media) is “enhance treatments (docetaxel and androgen withdrawal) sensitivity”. The same substance showed a tumor volume in the data set with PC-3 tumors (PC3 xenografted nude mice, 10th week of treatment) of 500 mm^3. The substance also registered a tumor volume maintained in the data set with PC-3 tumors (PC3 xenografted nude mice, docetaxel (33 mg/kg) followed by ASO TCTP) of 100 mm^3. The “reduction of mean PC-3 tumor volume” value in the data set with PC-3 tumors (TCTP ASO plus docetaxel vs scrambled control, 13 weeks after initiation of treatment) was less than 70%. The “harvested tumors smaller in appearance” value is recorded as 50% in the data set on PC-3 tumors (after two weeks of i.p. treatment) and “¾” in the data set on LNCaP tumors (after 9 weeks of TCTP ASO monotherapy). Also, in the data set on PC-3 tumors (mice bearing PC-3 tumors, body weight t0 vs tf), the “general toxicity (animal behavior, body weight)” value was “did not cause general toxicity”. For the same substance, in the data set with PC-3 tumors (monotherapy 10 mg/kg i.p. once daily, days 56 to 70, vs scrambled control), the “reduction of PC-3 tumor volume” value is given as 50%. Also, the “cleaved caspase-3 fragments in harvested PC-3 tumors” value with PC-3 tumors (western blotting, i.p. delivery) is recorded as “presence of cleaved caspase-3 fragments”. Further, the “LNCaP tumor volume increase compared with control ASO” value with LNCaP tumors (9 weeks after castration) is listed as “increased more slowly”. For the same substance, in the data set on LNCaP tumors (at sacrifice), the “tumor volume in control compared with the TCTP ASO-treated group” value came to 4 fold. Also, the “side effects (animal behavior, body weight)” value in the data set with LNCaP tumors (castrated mice bearing LNCaP tumors, 9 weeks) is on record as “No side effects”. Also, in the data set with PC-3 cells, the “enhancement of docetaxel sensitivity” value is given as “up to 25%”. For the same substance, the “decrease of proliferation of PC3 cells” value in the data set with PC-3 cells (TCTP ASO, MTT assay (summary, FIG. 13)) was determined as 58%.

(Values after patent US10105384B2, “Nucleic acids targeting TCTP for use in the treatment of chemo- or hormone-resistant cancers” (INSTITUT NATIONAL DE LA SANTE ET DE LA RECHERCHE MEDICALE …, priority 2010, dated 2018).)
